Source: the supplement of paper PMC11061612

Assays:
SK-N-SH (Neuroblastoma) = experiment: combination Emax (second highest fraction inhibited in the dose matrix, 72 h); higher = more inhibition; extreme values may be limits of the assay
In short: (§1)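 After 24 hours at 37°C and 5% CO2 in 1536-well plates, cells in DMEM/F12 or RPMI plus 10% FBS received two-drug dose matrices for 72 hours. Viability came from CellTiter-Glo 2.0 luminescence and was scaled as inhibition, anchored at 0 by vehicle wells and at 1 by blank wells. Combination Emax is taken as the second-highest inhibition in the matrix, and Bliss excess as the observed combination effect less EA + EB − EA·EB, with EA and EB the single-agent effects.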

KALS-1 (Glioblastoma) [1] = experiment: as above
In short: as §1

[2] = tested on: MS-1 (Small Cell Lung Carcinoma); experiment: as above
In short: as §1

[3] = tested on: LS-1034 (Colorectal Carcinoma); experiment: as above
In short: as §1

[4] = tested on: ZR-75-30 (Breast Carcinoma); experiment: as above
In short: as §1

[5] = tested on: SKG-IIIa (Cervical Carcinoma); experiment: as above
In short: as §1

[6] = tested on: SNU-423 (Hepatocellular Carcinoma); experiment: as above
In short: as §1

IST-MEL1 (Melanoma) = experiment: as above
In short: as §1

[7] = tested on: SCC-4 (Oral Cavity Carcinoma); experiment: as above
In short: as §1

[8] = tested on: CPC-N (Small Cell Lung Carcinoma); experiment: as above
In short: as §1

[9] = tested on: HPAF-II (Pancreatic Carcinoma); experiment: as above
In short: as §1

[10] = tested on: NAMALWA (Burkitt's Lymphoma); experiment: as above
In short: as §1

[11] = tested on: C-33-A (Cervical Carcinoma); experiment: as above
In short: as §1

[12] = tested on: COR-L88 (Small Cell Lung Carcinoma); experiment: as above
In short: as §1

[13] = tested on: SK-CO-1 (Colorectal Carcinoma); experiment: Bliss excess, mean over the matrix (fraction); higher = more synergy
In short: as §1

KALS-1 (Glioblastoma) [14] = experiment: as above
In short: as §1

[15] = tested on: SNU-423 (Hepatocellular Carcinoma); experiment: as above
In short: as §1

[16] = tested on: NAMALWA (Burkitt's Lymphoma); experiment: as above
In short: as §1

[17] = tested on: BxPC-3 (Pancreatic Carcinoma); experiment: as above
In short: as §1

[18] = tested on: COR-L88 (Small Cell Lung Carcinoma); experiment: as above
In short: as §1
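Wherever Bliss excess, mean over the matrix is given: after 72 h of two-drug dosing.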

Compound	combination Emax (SK-N-SH (Neuroblastoma))	combination Emax (KALS-1 (Glioblastoma) [1])	combination Emax [2]	combination Emax [3]	combination Emax [4]	combination Emax [5]	combination Emax [6]	combination Emax (IST-MEL1 (Melanoma))	combination Emax [7]	combination Emax [8]	combination Emax [9]	combination Emax [10]	combination Emax [11]	combination Emax [12]	Bliss excess [13]	Bliss excess (KALS-1 (Glioblastoma) [14])	Bliss excess [15]	Bliss excess [16]	Bliss excess [17]	Bliss excess [18]
Cc1c2c(nn1C)CSCc1cc(n(C)n1)CSc1cc(c3ccccc3c1)OCCCc1c(C(=O)O)n(C)c3c-2c(Cl)ccc13 [AZD5991] + Nc1ccn([C@@H]2O[C@H](CO)[C@@H](O)C2(F)F)c(=O)n1 [Gemcitabine] (first compound max 1 µM, 7x7, partner max 0.3 µM)	0.757	0.542	0.722	0.614	0.36	0.332	0.43	0.606	0.53	0.754	0.268	1	0.895	0.485	-0.0284	-0.0036	-0.0672	-0.0379	0.0052	0.0854
CS(=O)(=O)CCNCc1ccc(-c2ccc3ncnc(Nc4ccc(OCc5cccc(F)c5)c(Cl)c4)c3c2)o1 [Lapatinib] + NC1(c2ccc(-c3nc4ccn5c(=O)[nH]nc5c4cc3-c3ccccc3)cc2)CCC1 [MK-2206] (first compound max 10 µM, 7x7, partner max 10 µM)	0.921	0.718	0.926	0.919	0.912	0.36	0.912	0.886	0.719	0.847	0.402	0.909	0.895	0.812	0.0289	-0.004	0.0232	0.0388	0.0263	0.0151
